From ChEMBL document CHEMBL1201862, “PubChem BioAssay data set” (2004)
Several values for one entry are separate records, joined by “and”; a condition that tells them apart may be missing. Equal entries are not always repeated.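 Assay format: 96-well plates, 48-hour exposure. Abbreviation: GI50, concentration required for 50% inhibition of growth.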 Activity calls are given as the source filed them. Cut-off read from the data, not from the text of the source: active = GI50 up to about 1.1 µM and inactive = higher.

Key:
Assay in all cases: NCI tumour cell line growth inhibition, 48 h
A498 = tested on: A498
NCI-H522 = tested on: NCI-H522
A549 = tested on: A549
OVCAR-8 = tested on: OVCAR-8
UACC-257 = tested on: UACC-257
SF-295 = tested on: SF-295
NCI-H23 = tested on: NCI-H23
HOP-92 = tested on: HOP-92
M14 = tested on: M14
OVCAR-3 = tested on: OVCAR-3
RPMI-8226 = tested on: RPMI-8226
OVCAR-5 = tested on: OVCAR-5
HOP-62 = tested on: HOP-62
SK-OV-3 = tested on: SK-OV-3
SN12C = tested on: SN12C
RXF 393 = tested on: RXF 393
MDA-MB-435 = tested on: MDA-MB-435
MDA-N = tested on: MDA-N
HCT-116 = tested on: HCT-116
SW-620 = tested on: SW-620
SNB-19 = tested on: SNB-19
MDA-MB-231 = tested on: MDA-MB-231
SK-MEL-28 = tested on: SK-MEL-28
U-251 = tested on: U-251
SF-539 = tested on: SF-539
SK-MEL-5 = tested on: SK-MEL-5
TK-10 = tested on: TK-10
NCI/ADR-RES = tested on: NCI/ADR-RES
EKVX = tested on: EKVX
MOLT-4 = tested on: MOLT-4
UO-31 = tested on: UO-31
LOX IMVI = tested on: LOX IMVI
HCC 2998 = tested on: HCC 2998
COLO 205 = tested on: COLO 205
IGROV-1 = tested on: IGROV-1
SK-MEL-2 = tested on: SK-MEL-2
KM12 = tested on: KM12
NCI-H226 = tested on: NCI-H226
Malme-3M = tested on: Malme-3M
OVCAR-4 = tested on: OVCAR-4
786-0 = tested on: 786-0
HCT-15 = tested on: HCT-15
MCF7 = tested on: MCF7
SF-268 = tested on: SF-268
SNB-75 = tested on: SNB-75
K562 = tested on: K562
BT-549 = tested on: BT-549
CAKI-1 = tested on: CAKI-1
NCI-H460 = tested on: NCI-H460
ACHN = tested on: ACHN
T47D = tested on: T47D
PC-3 = tested on: PC-3
DU-145 = tested on: DU-145
HT-29 = tested on: HT-29
HL-60 = tested on: HL-60
Hs-578T = tested on: Hs-578T
CCRF-CEM = tested on: CCRF-CEM
SR = tested on: SR
UACC-62 = tested on: UACC-62

## CCCCOc1c(C(=O)O)cc(Br)cc1C(=O)O
A498
  GI50: > 100 µM (inactive)
NCI-H522
  GI50: > 100 µM (inactive)
A549
  GI50: > 100 µM (inactive)
OVCAR-8
  GI50: > 100 µM (inactive)
UACC-257
  GI50: > 100 µM (inactive)
SF-295
  GI50: > 100 µM (inactive)
NCI-H23
  GI50: > 100 µM (inactive)
HOP-92
  GI50: > 100 µM (inactive)
M14
  GI50: > 100 µM (inactive)
OVCAR-3
  GI50: > 100 µM (inactive)
RPMI-8226
  GI50: > 100 µM (inactive)
OVCAR-5
  GI50: > 100 µM (inactive)
HOP-62
  GI50: > 100 µM (inactive)
SK-OV-3
  GI50: > 100 µM (inactive)
SN12C
  GI50: > 100 µM (inactive)
RXF 393
  GI50: > 100 µM (inactive)
MDA-MB-435
  GI50: > 100 µM (inactive)
MDA-N
  GI50: > 100 µM (inactive)
HCT-116
  GI50: 91.6 µM (inactive)
SW-620
  GI50: > 100 µM (inactive)
SNB-19
  GI50: > 100 µM (inactive)
MDA-MB-231
  GI50: > 100 µM (inactive)
SK-MEL-28
  GI50: > 100 µM (inactive)
U-251
  GI50: > 100 µM (inactive)
SF-539
  GI50: > 100 µM (inactive)
SK-MEL-5
  GI50: > 100 µM (inactive)
TK-10
  GI50: > 100 µM (inactive)
NCI/ADR-RES
  GI50: > 100 µM (inactive)
EKVX
  GI50: > 100 µM (inactive)
MOLT-4
  GI50: > 100 µM (inactive)
UO-31
  GI50: > 100 µM (inactive)
LOX IMVI
  GI50: > 100 µM (inactive)
HCC 2998
  GI50: > 100 µM (inactive)
COLO 205
  GI50: > 100 µM (inactive)
IGROV-1
  GI50: > 100 µM (inactive)
SK-MEL-2
  GI50: > 100 µM (inactive)
KM12
  GI50: > 100 µM (inactive)
NCI-H226
  GI50: > 100 µM (inactive)
Malme-3M
  GI50: > 100 µM (inactive)
OVCAR-4
  GI50: > 100 µM (inactive)
786-0
  GI50: > 100 µM (inactive)
HCT-15
  GI50: > 100 µM
MCF7
  GI50: > 100 µM (inactive)
SF-268
  GI50: > 100 µM (inactive)
SNB-75
  GI50: > 100 µM (inactive)
K562
  GI50: > 100 µM (inactive)
BT-549
  GI50: > 100 µM (inactive)
CAKI-1
  GI50: > 100 µM (inactive)
NCI-H460
  GI50: > 100 µM (inactive)
ACHN
  GI50: > 100 µM (inactive)
T47D
  GI50: > 100 µM (inactive)
PC-3
  GI50: > 100 µM (inactive)

## C=CCN1C(=O)/C(=C/c2ccc(C)cc2)N=C1SC1OC(COC(C)=O)C(OC(C)=O)C(OC(C)=O)C1OC(C)=O (stereo not drawn)
A549
  GI50: > 100 µM (inactive)
SF-295
  GI50: 60.1 µM (inactive)
M14
  GI50: 68.7 µM (inactive)
OVCAR-5
  GI50: 53.2 µM (inactive) and > 82.8 µM (inactive)
SN12C
  GI50: > 100 µM (inactive)
RXF 393
  GI50: 11.6 µM (inactive) and 8.43 µM (inactive)
MDA-N
  GI50: > 100 µM (inactive)
HCT-116
  GI50: 34.1 µM (inactive)
DU-145
  GI50: 33.9 µM (inactive) and > 45.3 µM (inactive)
HT-29
  GI50: > 100 µM (inactive)
SNB-19
  GI50: > 100 µM (inactive)
MDA-MB-231
  GI50: 28.7 µM (inactive) and 27.5 µM (inactive)
SK-MEL-28
  GI50: > 100 µM (inactive)
TK-10
  GI50: > 100 µM (inactive)
EKVX
  GI50: 51.8 µM (inactive)
COLO 205
  GI50: 59.4 µM (inactive)
Malme-3M
  GI50: 39.2 µM (inactive)
OVCAR-4
  GI50: 7.83 µM (inactive)
786-0
  GI50: 3.4 µM (inactive)
HL-60
  GI50: > 76.4 µM (inactive)
MCF7
  GI50: 39.4 µM (inactive) and 34.8 µM (inactive)
BT-549
  GI50: 25.3 µM (inactive) and 23.3 µM (inactive)
T47D
  GI50: 14.4 µM (inactive)

## O=P1(Oc2ccccc2)N(CCCl)CCN1c1ccccc1 (stereo not drawn)
A498
  GI50: 55 µM (inactive)
NCI-H522
  GI50: > 100 µM (inactive)
A549
  GI50: > 100 µM (inactive)
OVCAR-8
  GI50: > 100 µM (inactive)
UACC-257
  GI50: 79.6 µM (inactive)
Hs-578T
  GI50: > 100 µM (inactive)
SF-295
  GI50: > 100 µM (inactive)
NCI-H23
  GI50: > 100 µM (inactive)
HOP-92
  GI50: > 100 µM (inactive)
M14
  GI50: > 100 µM (inactive)
OVCAR-3
  GI50: > 100 µM (inactive)
RPMI-8226
  GI50: > 100 µM (inactive)
OVCAR-5
  GI50: > 100 µM (inactive)
HOP-62
  GI50: > 100 µM (inactive)
SK-OV-3
  GI50: > 100 µM (inactive)
SN12C
  GI50: > 100 µM (inactive)
RXF 393
  GI50: 58.5 µM (inactive)
MDA-MB-435
  GI50: > 100 µM (inactive)
MDA-N
  GI50: > 100 µM (inactive)
HCT-116
  GI50: 75.3 µM (inactive)
DU-145
  GI50: > 100 µM (inactive)
HT-29
  GI50: > 100 µM (inactive)
SW-620
  GI50: > 100 µM (inactive)
SNB-19
  GI50: > 100 µM (inactive)
MDA-MB-231
  GI50: 95.7 µM (inactive)
SK-MEL-28
  GI50: > 100 µM (inactive)
U-251
  GI50: > 100 µM (inactive)
SF-539
  GI50: > 100 µM (inactive)
SK-MEL-5
  GI50: 66.5 µM (inactive)
TK-10
  GI50: 81.5 µM (inactive)
NCI/ADR-RES
  GI50: 83.6 µM (inactive)
EKVX
  GI50: 80.4 µM (inactive)
MOLT-4
  GI50: 61.8 µM (inactive)
UO-31
  GI50: > 100 µM (inactive)
LOX IMVI
  GI50: > 100 µM (inactive)
HCC 2998
  GI50: > 100 µM (inactive)
CCRF-CEM
  GI50: > 100 µM (inactive)
COLO 205
  GI50: > 100 µM (inactive)
IGROV-1
  GI50: 42.7 µM (inactive)
SK-MEL-2
  GI50: > 100 µM (inactive)
KM12
  GI50: > 100 µM (inactive)
NCI-H226
  GI50: > 100 µM (inactive)
Malme-3M
  GI50: > 100 µM (inactive)
SR
  GI50: 79.3 µM (inactive)
OVCAR-4
  GI50: 23.4 µM (inactive)
786-0
  GI50: > 100 µM (inactive)
HL-60
  GI50: > 100 µM (inactive)
HCT-15
  GI50: > 100 µM
MCF7
  GI50: 70.1 µM (inactive)
SF-268
  GI50: > 100 µM (inactive)
SNB-75
  GI50: 34.8 µM (inactive)
K562
  GI50: > 100 µM (inactive)
CAKI-1
  GI50: > 100 µM (inactive)
NCI-H460
  GI50: > 100 µM (inactive)
ACHN
  GI50: > 100 µM (inactive)
T47D
  GI50: > 100 µM (inactive)
UACC-62
  GI50: > 100 µM (inactive)
PC-3
  GI50: > 100 µM (inactive)
